Measurements reported in US10981932B2, “Macrocyclic indole derivatives” (Bayer Aktiengesellschaft, priority 2016, dated 2021).
Like-named read-outs stand apart in the source and are kept apart here.

Assays:
MCL-1 = MCL-1 (Homo sapiens, UniProt Q07820); assay: Protein-protein interaction assay MCL-1/Noxa BH3 peptide (MCL-1 assay), TR-FRET; assay type: binding; conditions: MBP-MCL-1 / Noxa BH3-derived peptide, median
In short: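 IC50 came from a 4-parameter fit of the normalized 665/620 nm TR-FRET ratio (anti-MBP Eu-cryptate/streptavidin-XL665). Compounds (0.1 nM–20 μM, duplicates) were preincubated 10 min at 22 °C with 1 nM MBP-MCL-1 in pH 7 Tris/NaCl/KF buffer, then read after 1 h at 22 °C plus overnight at 4 °C.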

SUDHL5 [1] = assay: Induction of caspase-3/7 activity (Caspase-Glo 3/7), SUDHL5; assay type: cell-based; conditions: caspase-3/7 induction, SUDHL5 cells, 3 h treatment, median
In short: (§1)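 DLBCL lines SUDHL5 and SUDHL10 treated with compounds for 3 h at 37 °C; caspase-3/7 activity read by Caspase-Glo 3/7 luminescence. Medium-only background subtracted; EC50 fitted with bottom fixed at 1 and top fixed at the reference compound's maximal induction.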

SUDHL10 [2] = assay: Induction of caspase-3/7 activity (Caspase-Glo 3/7), SUDHL10; assay type: cell-based; conditions: caspase-3/7 induction, SUDHL10 cells, 3 h treatment, median
In short: as §1

SUDHL5 [3] = assay: Anti-proliferative effect (CellTiter-Glo, 72 h), SUDHL5; assay type: cell-based; conditions: SUDHL5 cells, antiproliferation, 72 h incubation, median, read-out: Antiproli SUDHL5 [M] (median)
In short: (§2)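 72 h compound treatment, 37 °C humidified; CellTiter-Glo added, 10 min incubation, luminescence read; day 0 plate read in parallel for baseline.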

SUDHL10 [4] = assay: Anti-proliferative effect (CellTiter-Glo, 72 h), SUDHL10; assay type: cell-based; conditions: SUDHL10 cells, antiproliferation, 72 h incubation, median, read-out: Antiproli SUDHL10 [M] (median)
In short: as §2

OPM2 = assay: Anti-proliferative effect (CellTiter-Glo, 72 h), OPM2; assay type: cell-based; conditions: OPM2 cells, median, read-out: IC50 antiproliferation assay OPM2 [M] (median)
In short: as §2

A2780 = assay: Anti-proliferative effect (CellTiter-Glo, 72 h), A2780; assay type: cell-based; conditions: A2780 cells, median, read-out: IC50 antiproliferation assay A2780 [M] (median)
In short: as §2

SUDHL5 [5] = assay: Induction of cytotoxicity (CellTiter-Glo, 5 h), SUDHL5
SUDHL10 [6] = assay: Induction of cytotoxicity (CellTiter-Glo, 5 h), SUDHL10
[7] = read-out: Cytotox SUDHL5 [M] (median), SUDHL5 cells, cytotoxicity induction, CellTiter-Glo, 5 h incubation, median
[8] = read-out: Cytotox SUDHL10 [M] (median), SUDHL10 cells, cytotoxicity induction, CellTiter-Glo, 5 h incubation, median
[9] = Homo sapiens, SU-DHL-5, 5 h, read-out: Cytotox SUDHL5 [M] (median), SUDHL5 cells, cytotoxicity induction, CellTiter-Glo, 5 h incubation, median
[10] = Homo sapiens, SU-DHL10, 5 h, read-out: Cytotox SUDHL10 [M] (median), SUDHL10 cells, cytotoxicity induction, CellTiter-Glo, 5 h incubation, median

Sequence of MCL-1 (Q07820 whole entry): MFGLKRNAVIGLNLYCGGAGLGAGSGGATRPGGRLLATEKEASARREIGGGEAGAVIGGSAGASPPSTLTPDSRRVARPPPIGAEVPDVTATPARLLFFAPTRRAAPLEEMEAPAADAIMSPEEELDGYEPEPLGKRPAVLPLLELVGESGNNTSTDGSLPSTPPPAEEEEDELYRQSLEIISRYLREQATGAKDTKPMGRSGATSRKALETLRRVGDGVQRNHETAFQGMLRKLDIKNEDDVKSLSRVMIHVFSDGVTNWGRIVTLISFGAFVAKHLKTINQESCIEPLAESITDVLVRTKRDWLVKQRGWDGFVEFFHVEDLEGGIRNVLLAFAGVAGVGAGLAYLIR

IC50 (MCL-1) [µM]	EC50 (SUDHL5 [1]) [µM]	EC50 (SUDHL10 [2]) [µM]	IC50 (SUDHL5 [3]) [M]	IC50 (SUDHL10 [4]) [M]	IC50 (A2780) [M]	EC50 (SUDHL5 [1]; Homo sapiens, SU-DHL-5, 3 h) [µM]	EC50 (SUDHL10 [2]; Homo sapiens, SU-DHL10, 3 h) [µM]	IC50 (SUDHL5 [3]; Homo sapiens, SU-DHL-5, 72 h) [M]	IC50 (SUDHL10 [4]; Homo sapiens, SU-DHL10, 72 h) [M]	IC50 (A2780; Homo sapiens, A2780, 72 h) [M]	SMILES	IC50 (OPM2) [M]	IC50 (SUDHL5 [5]; [7]) [M]	IC50 (SUDHL10 [6]; [8]) [M]	IC50 (OPM2; Homo sapiens, OPM-2, 72 h) [M]	IC50 (SUDHL5 [5]; [9]) [M]	IC50 (SUDHL10 [6]; [10]) [M]
0.0162	10.2	7.5	1.36e-05	7.2e-06	2.48e-05	–	–	–	–	–	Cn1nc(COc2ccc(S(C)(=O)=O)cc2)c2c1COCC=CCn1c(C(=O)O)c(CCCOc3cccc4ccccc34)c3cccc-2c31 (single isomer, unassigned) [Example 1-53, (E/Z)-1-methyl-3-{[4-(methylsulfonyl)phenoxy]methyl}-7-[3-(naphthalen-1-yloxy)propyl]-1,10,13,15-tetrahydropyrazolo[4′,3′:9,10][1,6]oxazacycloundecino[8,7,6-hi]indole-8-carboxylic Acid]	> 3.3e-05	6.49e-06	7.89e-06	–	–	–
0.0323	21.3	23	1.15e-05	5.59e-06	1.43e-05	–	–	–	–	–	Cn1nc(COc2ccc(N3CCN(C(=O)C4CC4)CC3)cc2)c2c1COCCCCn1c(C(=O)O)c(CCCOc3cccc4ccccc34)c3cccc-2c31 (single isomer, unassigned; enantiomer 2) [Example 1-23, 3-({4-[4-(cyclopropylcarbonyl)piperazin-1-yl)phenoxy]methyl}-1-methyl-7-[3-(naphthalen-1-yloxy)propyl]-1,10,11,12,13,15-hexahydropyrazolo[4′,3′:9,10][1,6]oxazacycloundecino[8,7,6-hi]indole-8-carboxylic acid (enantiomer 2)]	1.7e-05	2.45e-05	> 3.3e-05	–	–	–
0.0541	11.7	27.5	> 3.3e-05	2.02e-05	> 3.3e-05	–	–	–	–	–	CN1CCCn2c(C(=O)O)c(CCCOc3cccc4ccccc34)c3cccc(c32)-c2c(COc3ccc(N4CCOCC4)cc3)nn(C)c2C1 (single isomer, unassigned) [Example 1-89, (−)-7,9-dimethyl-11-{[4-(morpholin-4-yl)phenoxy]methyl}-1-[3-(naphthalen-1-yloxy)propyl]-4,5,6,7,8,9-hexahydropyrazolo[3′,4′:7,8][1,5]diazecino[9,10,1-hi]indole-2-carboxylic Acid]	> 3.3e-05	1.39e-05	1.14e-05	–	–	–
0.67	–	–	1.02e-05	3.36e-06	5.49e-06	14.5	13.1	–	–	–	Cn1nc(COc2ccc(C3=CCOCC3)cc2)c2c1COCCCCn1c(C(=O)O)c(CCCOc3cccc4ccccc34)c3cccc-2c31 (single isomer, unassigned) [Example 1-62, 3-{[4-(3,6-dihydro-2H-pyran-4-yl)phenoxy]methyl}-1-methyl-7-[3-(naphthalen-1-yloxy)propyl]-1,10,11,12,13,15-hexahydropyrazolo[4′,3′:9,10][1,6]oxazacycloundecino[8,7,6-hi]indole-8-carboxylic Acid]	–	–	1.96e-05	7.6e-06	1.2e-05	–

Second part, the molecule before the results:

SMILES	IC50 (MCL-1) [µM]	EC50 (SUDHL5 [1]) [µM]	EC50 (SUDHL10 [2]) [µM]	IC50 (SUDHL5 [3]) [M]	IC50 (SUDHL10 [4]) [M]	IC50 (A2780) [M]	EC50 (SUDHL5 [1]; Homo sapiens, SU-DHL-5, 3 h) [µM]	EC50 (SUDHL10 [2]; Homo sapiens, SU-DHL10, 3 h) [µM]	IC50 (SUDHL5 [3]; Homo sapiens, SU-DHL-5, 72 h) [M]	IC50 (SUDHL10 [4]; Homo sapiens, SU-DHL10, 72 h) [M]	IC50 (A2780; Homo sapiens, A2780, 72 h) [M]	IC50 (OPM2) [M]	IC50 (SUDHL5 [5]; [7]) [M]	IC50 (SUDHL10 [6]; [8]) [M]	IC50 (OPM2; Homo sapiens, OPM-2, 72 h) [M]	IC50 (SUDHL5 [5]; [9]) [M]	IC50 (SUDHL10 [6]; [10]) [M]
Cn1nc(COc2ccc(N3CCOCC3)cc2)c2c1COCCCCn1c(C(=O)O)c(CCCOc3cccc4ccccc34)c3cccc-2c31 (single isomer, unassigned; enantiomer 2) [Example 123, 1-methyl-3-{[4-(morpholin-4-yl)phenoxy]methyl}-7-[3-(naphthalen-1-yloxy)propyl]-1,10,11,12,13,15-hexahydropyrazolo[4′,3′:9,10][1,6]oxazacycloundecino[8,7,6-hi]indole-8-carboxylic Acid (Enantiomer 2)]	0.00314	4.11	7.36	2.28e-06	1.01e-05	1.14e-05	–	–	–	–	–	4.32e-06	3.13e-06	2.1e-05	–	–	–
Cc1c2c(nn1C)COC/C=C\Cn1c(C(=O)O)c(CCCOc3cccc4ccccc34)c3cccc-2c31 (racemic) [Example 062, (rac)-(11Z)-2,3-dimethyl-7-[3-(naphthalen-1-yloxy)propyl]-2,10,13,15-tetrahydropyrazolo[4′,3′:9,10][1,6]oxazacycloundecino[8,7,6-hi]indole-8-carboxylic Acid]	0.0131	–	–	–	–	–	5.9	18.1	4.17e-06	4.49e-06	2.26e-05	–	–	–	1.67e-05	6.67e-06	2.43e-05
COCCn1nc2c(c1C)-c1cccc3c(CCCOc4cccc5ccccc45)c(C(=O)O)n(c13)CCCN(C)C2 (racemic) [Example 052, (rac)-10-(2-methoxyethyl)-7,11-dimethyl-1-[3-(naphthalen-1-yloxy)propyl]-4,5,6,7,8,10-hexahydropyrazolo[3′,4′:7,8][1,5]diazecino[9,10,1-hi]indole-2-carboxylic Acid]	0.028	–	–	–	–	–	29.9	> 33	2.15e-06	1.3e-05	7.41e-06	–	–	–	3.07e-05	2.68e-05	2.97e-05
CCn1nc2c(c1C1CC1)-c1cccc3c(CCCOc4cccc5ccccc45)c(C(=O)O)n(c13)CCCCOC2 (racemic) [Example 081, (rac)-3-Cyclopropyl-2-ethyl-7-[3-(naphthalen-1-yloxy)propyl]-2,10,11,12,13,15-hexahydropyrazolo[4′3′:9,10][1,6]oxazacycloundecino[8,7,6-hi]indole-8-carboxylic Acid]	0.015	–	–	–	–	–	7.21	19	9.61e-06	9.62e-06	1.74e-05	–	–	–	1.44e-05	7.06e-06	2.26e-05
Cc1nn(C)c2c1-c1cccc3c(CCCOc4cccc5cc(F)ccc45)c(C(=O)O)n(c13)CCCCOC2 (racemic) [Example 018, (rac)-7-{3-[(6-fluoronaphthalen-1-yl)oxy]propyl}-1,3-dimethyl-1,10,11,12,13,15-hexahydropyrazolo[4′,3′:9,10][1,6]oxazacycloundecino[8,7,6-hi]indole-8-carboxylic Acid]	0.00453	–	–	–	–	–	4.43	9.64	2.32e-06	7.88e-06	> 3.3e-05	–	–	–	9.67e-06	3.77e-06	9.04e-06
COCCn1nc2c(c1C)-c1cccc3c(CCCOc4cccc5ccccc45)c(C(=O)O)n(c13)C/C=C\COC2 (racemic) [Example 071, (rac)-(11Z)-2-(2-methoxyethyl)-3-methyl-7-[3-(naphthalen-1-yloxy)propyl]-2,10,13,15-tetrahydropyrazolo[4′,3′:9,10][1,6]oxazacycloundecino[8,7,6-hi]indole-8-carboxylic Acid]	0.00412	–	–	–	–	–	5.04	11.1	6.23e-06	2.59e-06	1.89e-05	–	–	–	1.3e-05	7.45e-06	1.76e-05
Cc1ccc2c(CCCOc3cccc4ccccc34)c(C(=O)O)n3c2c1-c1c(nn(C)c1C)COC/C=C\C3 (racemic) [Example 070, (rac)-(11Z)-2,3,4-trimethyl-7-[3-(naphthalen-1-yloxy)propyl]-2,10,13,15-tetrahydropyrazolo[4′,3′:9,10][1,6]oxazacycloundecino[8,7,6-hi]indole-8-carboxylic Acid]	0.00652	–	–	–	–	–	5.4	8.62	2e-06	8.58e-06	1.87e-05	–	–	–	1.34e-05	4.28e-06	9.59e-06
